Measured values from publication PMC3169616, “Unique Residues Involved in Activation of the Multitasking Protease/Chaperone HtrA from Chlamydia trachomatis” (PLoS ONE, 2011).

Legend:
Assay type in all cases: biochemical, Chlamydia trachomatis
CtHtrA R373A [1] = test: Act1 activation of Bcas1 proteolysis by mutated protein; conditions: R373A mutant; Act1 120 µM
Description: The hexameric CtHtrA molecular model was examined to identify the putative PDZ1 activator binding cleft (Fig. 4). The base of this cleft in CtHtrA is a hydrophobic pocket formed by the residues L302 and I365 (V328 in E. coli DegP) (Fig. 4). L302 and I365 were targeted for site directed mutagenesis (L302N and I365D) to make this non-polar pocket either polar or charged. The role of a potential conformational change caused by movement of the whole PDZ1 domain relative to the protease subunit was also tested by mutating a highly conserved arginine residue (R299W) on the flexible loop between the protease and PDZ domains. This mutation was made in order to alter the flexibility around this residue while occupying a similar sized area. Additionally, a second mutation was made in conjunction with the R299W mutation on the residue R373A which potentially forms a salt bridge between the PDZ domain and protease domain. This double mutation was made in order to reduce the flexibility and disrupt the mobile salt bridge involved in the PDZ1:protease domain interface. The R373A mutation was also made independently of R299W. These mutated proteins were assayed to examine the impact of the changes on Act1 activation on the Bcas1 substrate proteolysis. […]
The purified recombinant protein was examined by Coomassie stained polyacrylamide gels and activity was checked using ß-casein cleavage assays prior to use in peptide assays. […] Protease assays using pNA labelled peptides were conducted using the xMARK Microplate spectrophotometer (Bio-Rad) at 405 nm, incubated at 37°C, with a reading taken every 10 s for 30 min. The maximum slope over a minimum of 8 readings was used for the data analysis. […] The assays were excited at 340 nm and emission was detected at 405 nm with a gain of 1000, the assays were monitored every 20 s or at the minimum cycle time for up to 40 min. […] The assay results shown for the fluorescent compounds have been normalised for the amount of fluorescent emission detected using a standard curve of known concentrations of the MCA fluorophore under the identical assay conditions. […]

CtHtrA R299W = test: Oligomerisation assay, mutated protein; conditions: R299W mutant, 10 mins incubation
Procedure: (§1) E. coli DegP proteolysis activation involves the transition from resting hexamers via trimers to 12- and 24-mers following the peptide activator binding to the PDZ1 binding cleft. CtHtrA oligomer formation induced by Act1 addition was examined after incubation for 10 mins at 37°C. The wild type and mutant proteins were incubated with either the ß-casein based activator peptide (Act1), or with whole insulin (intact), or in the absence of any activator as a control. CtHtrA incubated in the absence of any added activators formed 24-mers with some hexamers detected after 10 mins (Fig. 5). […] The R299W mutant was present as hexamer and 24-mer in the control with no activator. […] The L302N mutant was not detected in any higher oligomeric form under any conditions. L302N was detected as faint hexamer and trimer but mostly monomer under all tested conditions (not visible on these gels). […] I365D was detected as hexamers, trimers, 12-mers, and some 24-mers when incubated in the absence of activators.
(§2) The oligomerisation of HtrA into 12- and 24-mer complexes has been independently detected for E. coli HtrA (DegP). The oligomerisation of HtrA (DegP) was triggered by peptides from digested ß-casein [18]. Assays to detect whether CtHtrA and site directed mutant protein oligomerisation was triggered by substrates were conducted essentially as previously described (Merdanovic et al., 2010). Briefly, 2 mg/ml protein solutions in 100 mM sodium phosphate buffer pH 7.0 were pre-incubated to the required temperature. The ligands (activator peptide, or insulin) were added and at 10 min, and the proteins were fixed using 0.5% glutaraldehyde. Samples were fixed at room temperature for 2 min prior to addition of 1 M Tris pH 7.5 to remove any excess glutaraldehyde. Samples were incubated for another 10 min at room temperature prior to addition of SDS PAGE reducing loading buffer. The protein samples were examined on 3–8% TrisAcetate gradient polyacrylamide gels (Novex, Invitrogen) by silver staining. The proteins used in this study were not initially denatured by treatment with urea as, the refolding, formation of oligomers, and protease activity was never successfully detected with denatured CtHtrA. All assays were conducted in duplicate on three separate occasions with at least two gels of each experiment completed for each assay condition.

CtHtrA R373A [2] = test: Oligomerisation assay, mutated protein; conditions: R373A mutant, 10 mins incubation
Procedure: as §1, §2

CtHtrA I365D = test: Oligomerisation assay, mutated protein; conditions: I365D mutant, 10 mins incubation
Procedure: as §1, §2

## H-VLGPVRGPFPIIV-OH [Act1]
CtHtrA R373A [1]
  effect of Act1 on Bcas1 proteolysis rate: failed to increase the proteolysis rate
CtHtrA R299W
  oligomer formation induced by activator: Low levels of 24-mer were formed
CtHtrA R373A [2]
  oligomer formation induced by activator: resulted in 24-mer formation
CtHtrA I365D
  oligomer formation induced by activator: no 12-mers, but only hexamers and 24-mers were detected
